From patent publication US8822484B2, “Fused thiazolo and oxazolo pyrimidinones” (Torrent Pharmaceuticals Limited, priority 2009, dated 2014) come the findings set out here.

What all share (type): cell-based
In one data set the test system is erythropoietin. The data set is described as follows: In vitro erythropoietin induction (ELISA of culture supernatant). Conditions: Hep3B cell line, relative to vehicle control; for EPO fold induction: 16 hours. (In general: An ELISA detects its analyte on a solid surface through an enzyme-linked reagent.)
In a further data set the test system is adrenomedullin mRNA. As to the kind of experiment: In vitro induction of adrenomedullin (mRNA, real-time PCR). The settings on record: Hep3B cell line, 200 uM, 6 hours, normalized to 18S rRNA, relative to vehicle control. The protocol: Hep3B cell line (ATCC HB8064) was employed. […] At the end of 6 hours, cells were lysed and total RNA was isolated. Expression of adrenomedullin mRNA along-with expression of 18S rRNA was monitored by real-time PCR. Adrenomedullin mRNA expression was normalized relative to the expression of 18S rRNA. The results were expressed as fold induction of adrenomedullin mRNA relative to vehicle treated control.

Another data set deals with VEGF. As to the kind of experiment: In vitro induction of vascular endothelial growth factor (ELISA of culture supernatant). Conditions: Hep3B cell line, 200 uM, 16 hours, relative to vehicle control. On the procedure:
Hep3B cell line (ATCC HB8064) was employed. […] Supernatant obtained was analyzed for VEGF by ELISA (R&D systems, USA).

Structures are written as SMILES.

Description for erythropoietin: Hep3B cell line (ATCC HB8064) was employed. Induction of erythropoietin was carried out for the indicated dose of compounds for 16 hours duration. At the end of 16 hours, cell culture medium was collected and centrifuged to remove any debris. Supernatant obtained was analyzed for erythropoietin by ELISA (R&D systems, USA). The results were expressed as fold induction as compared to vehicle control.

Consider `C[C@@H](NC(=O)c1c(O)nc2sc3c(n2c1=O)CCC(C)(C)C3)C(=O)O` (single isomer, unassigned) [Compound 44, 2-[(2-Hydroxy-7,7-dimethyl-4-oxo-5,6,7,8-tetrahydro-4H-9-thia-1,4a-diaza-fluorene-3-carbonyl)-amino]-propionic acid (D-isomer)], for which the EPO fold induction result in the data set on erythropoietin (200 uM) is reported as “+ (<2 fold)”.
For the molecule `CC1(C)CCc2c(sc3nc(O)c(C(=O)N[C@H](C(=O)O)c4ccccc4)c(=O)n23)C1` (single isomer, unassigned) [Compound 55, [(2-Hydroxy-7,7-dimethyl-4-oxo-5,6,7,8-tetrahydro-4H-9-thia-1,4a-diaza-fluorene-3-carbonyl)-amino]-phenyl-acetic acid, L-isomer], the EPO fold induction entry with erythropoietin (200 uM) was “+ (<2 fold)”.
The same measure, in the same setting: the entry for `CC(C)[C@H](NC(=O)c1c(O)nc2sc3c(n2c1=O)CCC(C)(C)C3)C(=O)O` (single isomer, unassigned) [Compound 43, 2-[(2-Hydroxy-7,7-dimethyl-4-oxo-5,6,7,8-tetrahydro-4H-9-thia-1,4a-diaza-fluorene-3-carbonyl)-amino]-3-methyl-butyric acid (L-isomer)] is “+ (<2 fold)”.
As for `O=C([O-])CNC(=O)c1c(O)nc2sc3c(n2c1=O)CCCCC3.O=C([O-])CNC(=O)c1c(O)nc2sc3c(n2c1=O)CCCCC3.[Na+].[Na+]` [Compound 82, [(2-Hydroxy-4-oxo-6,7,8,9-tetrahydro-4H,5H-10-thia-1,4a-diaza-benzo[a]azulene-3-carbonyl)-amino]-acetic acid, Disodium salt], in the data set on adrenomedullin mRNA, the “Adrenomedullin mRNA (fold induction)” value is listed as “+++ (5-8 fold)”. In the data set on erythropoietin (50 uM), the EPO fold induction entry is given as “++++ (9-16 fold)”. Further, the “VEGF (Fold induction)” value in the data set with VEGF is reported as “++ (2-4 fold induction of VEGF)”.
For `O=C(O)CNC(=O)c1c(O)nc2sc3c(n2c1=O)CCC3` [Compound 11, [(2-Hydroxy-4-oxo-7,8-dihydro-4H,6H-cyclopenta[4,5]thiazolo[3,2-a]pyrimidine-3-carbonyl)-amino]-acetic acid], in the data set on erythropoietin (200 uM), the EPO fold induction entry is “+++ (5-8 fold)”.
Same read-out and setting: with `O=C(O)CCNC(=O)c1c(O)nc2sc3c(n2c1=O)CCC3` [Compound 14, 3-[(2-Hydroxy-4-oxo-7,8-dihydro-4H,6H-cyclopenta[4,5]thiazolo[3,2-a]pyrimidine-3-carbonyl)-amino]-propionic acid] the entry was “++ (2-4 fold)”; with `CC1(C)CCc2c(sc3nc(O)c(C(=O)NCC(=O)[O-])c(=O)n23)C1.CC1(C)CCc2c(sc3nc(O)c(C(=O)NCC(=O)[O-])c(=O)n23)C1.[Na+].[Na+]` [Compound 80, [(2-Hydroxy-7,7-dimethyl-4-oxo-5,6,7,8-tetrahydro-4H-9-thia-1,4a-diaza-fluorene-3-carbonyl)-amino]-acetic acid, Disodium salt], “++++ (9-16 fold)”.
Regarding `COc1cc(OC)cc(C(=O)N2CCc3c(sc4nc(O)c(C(=O)NCC(=O)O)c(=O)n34)C2)c1` [Compound 41, {[7-(3,5-Dimethoxy-benzoyl)-2-hydroxy-4-oxo-5,6,7,8-tetrahydro-4H-9-thia-1,4a,7-triaza-fluorene-3-carbonyl]-amino}-acetic acid], the fold induction at 200 µM in the data set on erythropoietin (Homo sapiens, Hep3B, 16 h, 200 uM, read-out: EPO fold induction) is 2 to 4.
